Data on five compounds can be found in US8710040B2, “Pharmaceutical composition comprising gabapentin or an analogue thereof and an α-aminoamide and its analgesic use” (Newron Pharmaceuticals S.p.A., priority 2001, dated 2014).

Like-named read-outs stand apart in the source and are kept apart here.

For data set [1], the system named is monoarthritic rat model of chronic pain induced by complete Freund's adjuvant (CFA). As to the kind of experiment: Antiallodynic effect (von Frey mechanical allodynia) in the monoarthritic rat model of chronic pain induced by CFA. Type of data set: in vivo. The conditions noted are these: for ED50: Rattus norvegicus, po, read-out: ED50 (compound alone); for ED50 (as restated in the formulation example): compound alone, quoted in the 20 mg formulation example; for Interaction with GBP on the antiallodynic effect (ED50mix compared with ED50add or ED50 alone): oral co-administration with GBP at fixed ratios. On the procedure:
This procedure involves the determination of the total amount in the mixture that is required to produce a specified synergistic antiallodynic effect at the 50% dose level (ED50mix) and the corresponding total amount that would be expected under simple additivity (ED50add). Where it is established that ED50mix<ED50add for a specific fixed ratio, then the composition has a synergistic antiallodynic effect. Both the quantities ED50mix and ED50add are random variables. ED50mix was determined from the dose-response curve for a specific fixed ratio of the components; ED50add was calculated from the ED50 values for the individual drugs.
Procedure for Testing the Antiallodynic Effect of the Composition of the Invention
Adult male. Wistar rats (body weight 175-200 g, Harlan-Nossan, Italy) were housed in separate cages with free access to water and standard rat chow at a constant temperature (22±0.5° C.) and relative humidity (60-70%), with a 6.00 am to 6.00 pm light-dark period.
The inflammation was induced in rats by an intra-plantar injection of complete Freund's adjuvant (CFA, Sigma-100 μl) into left hind paw containing heat-killed and dried Mycobacterium tuberculosis in a mixture of paraffin oil and mannide monooleate as emulsifying agent. A group of control animal were injected with 100 μl of mineral oil, the incomplete Freund's adjuvant (IFA, Sigma).
Each animal was allowed to develop the arthritis over an 8-9 day period of before testing.
Rats were placed in individual plastic boxes on a mesh metal floor and allowed to acclimatize for about 30 min. A series of calibrated von Frey hair with logarithmically incremental stiffness (from 2.83 to 5.88×Log10 of the bending force, g) were applied to the paw with the up-down method. Each hair was presented perpendicularly against the paw, with sufficient force to cause slight bending, and held approximately 2-3 sec. The filament was recorded when a positive response was noted (paw withdrawn, licking or shaking).
The antiallodynic effect was expressed as % MPE (Maximal Possible Effect) at 2 h post-dosing.
The rats were all dosed orally with various doses of an α-aminoamide alone, GBP alone, combined doses of an α-aminoamide and GBP or vehicle. The dosing volume was 2 ml/kg. The dosing materials were all prepared in the vehicle, (distilled water); drug weights were calculated as the free base.
Data are presented as mean of 4/6 animals per group/dose.
The ED50 was defined as the dose producing 50% reversal of mechanical hyperalgesia at 2 h after treatment. An experimental ED50 and 95% confidence intervals (CI) were calculated for each compound alone from the linear regressions fitting the experimental data according to the equation y=a+bx.
The different α-aminoamides were then combined with GBP at different ratios in relation to their respective ED50 previously calculated (not limiting examples of the ratios are 1:1; 1:3; 1:9 and respectively 1:1, 3:1 and 9:1 ratios) for the evaluation of the synergic effect.
Multiple (typically 4) doses of each selected ratio were then studied orally for evaluating the synergic effect of the combination.
Each rat received only one treatment.

The nature of data set [2]: Rat Rotarod test (motor impairment and ataxia). The conditions noted are these: in vivo, po, p.o. at 2 hours, dose causing 50% of the animals to fall from the roller, read-out: TD50 (compound alone). On the procedure: The Rotarod test is an established method used as predictive of CNS-related side effects in humans, and in particular motor impairment and ataxia.
The different α-aminoamides were then combined with GBP at different ratios in relation to their respective TD50 previously calculated (a non limiting example of the ratios is the 1:1 ratio) for the evaluation of the possible synergic effect. Data are presented as mean of 8/10 animals per group/dose.
The test was performed 120 min after drug administration.
Background: The rotarod test checks motor coordination on a turning rod.

Setting [3] is: 2 h after single administration, dose producing 50% reversal of mechanical hyperalgesia, CFA rats.

For orientation: ED50 means the midpoint of the dose-response relation. On to `NC(=O)NN=Cc1ccc(Oc2ccc(F)cc2)cc1` [4-(4′-fluoro-phenoxy)benzaldehyde semicarbazone, reference compound], for which the 50% effective dose (ED50) in data set [1] (setting [3]) was found to be 14.5 mg/kg.

One may read the TD50 as the dose at which the toxic effect under study appears in half of the subjects. `NCC1(CC(=O)O)CCCCC1` [GBP, 1-(aminomethyl)cyclohexaneacetic acid, reference compound]: the TD50 at 120 min in data set [2] was determined as 430 mg/kg. Besides, in data set [1] (2 h), the 50% effective dose (ED50) came to 12.4 mg/kg. In data set [1], the “ED50 (as restated in the formulation example)” value is 12.40 mg.

Consider `CNC(=O)[C@@H](Cc1ccccc1)NCc1ccc(OCc2ccccc2)cc1` [NW-1037, (R)-(−)-2-[4-benzyloxybenzylamino]-3-phenyl-N-methylpropanamide], for which, in data set [1] (setting [3]), the median effective dose (ED50) came to 3.45 mg/kg. In addition, in data set [1], the “Interaction with GBP on the antiallodynic effect (ED50mix compared with ED50add or ED50 alone)” value was “synergic to GBP”.

For the compound `C[C@H](NCc1ccc(OCc2ccccc2F)cc1)C(N)=O` [NW-1029, (S)-(+)-2-[4-(2-fluorobenzyloxy)benzylamino]propanamide], the TD50 at 120 min in data set [2] is 470 mg/kg. The median effective dose (ED50) in data set [1] (setting [3]) came to 0.82 mg/kg. Moreover, in data set [1], the “ED50 (as restated in the formulation example)” value is listed as 0.82 mg and the “Interaction with GBP on the antiallodynic effect (ED50mix compared with ED50add or ED50 alone)” value is “synergic to GBP”.

Take `CNC(=O)[C@H](C)NCc1ccc(OCc2cccc(F)c2)cc1` [NW-1043, (S)-(+)-2-[4-(3-fluorobenzyloxy)-benzylamino]-N-methyl-propanamide]: the 50% effective dose (ED50) in data set [1] (setting [3]) came to 7.05 mg/kg. Further, in data set [1], the “Interaction with GBP on the antiallodynic effect (ED50mix compared with ED50add or ED50 alone)” value was “synergic to GBP”.
